# Measurements: patent US20250339569A1, “CARBONIC ANHYDRASE IX LIGANDS” (priority 2021, published 2025)
# Starred links: 1 amine or outer side, 2 acyl side, 3 side chain; linkers in the order of their positions; H or OH if unused. Positions of bridges follow the written chain, without caps; N, C: chain ends. Non-standard residues stand in square brackets, D forms with d. Residues, ends and D or L forms follow the SMILES beside them. *: point of attachment. NH(1-deoxy-D-glucityl) = OC[C@@H](O)[C@@H](O)[C@H](O)[C@@H](O)CN*; DOTA = O=C(O)CN1CCN(CC(=O)O)CCN(CC(=O)*)CCN(CC(=O)O)CC1; mXylylene = c1cc(C[*:1])cc(C[*:2])c1; Orn(Me2) = CN(C)CCC[C@H](N)C(=O)O; X2 = O=C(CN1CCC(N[*:1])CC1)[*:2]; αMeL = CC(C)C[C@](C)(N)C(=O)O; Pen = CC(C)(S)[C@H](N)C(=O)O; NMeS = CN[C@@H](CO)C(=O)O; Ac6c = NC1(C(=O)O)CCCCC1; Orn = NCCC[C@H](N)C(=O)O; Dab = NCC[C@H](N)C(=O)O; Thp = NC1(C(=O)O)CCOCC1
# Molecular target: T1, CAIX-expressing human HT-29 colorectal cancer cells (Homo sapiens, UniProt Q16790)
# T1 construct: CAIX-expressing human HT-29 colorectal cancer cells; host or cells: HT-29 human colorectal cancer cells
# Assay: FACS binding assay (IC50 determination, competition with tracer 3BP-2776 or 3BP-4149)
# Conditions: FACS binding assay, HT-29 cells, competition with tracer 3BP-2776 (10 nM, biotin-labeled), 4° C., 1 hour; read-out: pIC50 category (activity) (converted)
# Summary of the method: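 HT-29 cells in FACS buffer (PBS, 1% FCS) at 500.000 cells/ml were exposed to compounds competing with a labelled tracer, with biotinylated compounds detected by 1 μg/mL APC-streptavidin for 30 min on ice. APC/Cy5 median fluorescence was read by flow cytometry and IC50 derived by 4PL fit.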
row,SMILES,IC50 [nM]
1,CC(=O)N[C@H](C(=O)N[C@@H](Cc1ccc(O)cc1)C(=O)N[C@H]1CSCc2cccc(c2)CSC[C@@H](C(N)=O)NC(=O)[C@H](CO)NC(=O)[C@H](Cc2c[nH]c3ccccc23)NC(=O)[C@@H]2CCC(=O)NCCCC[C@H](NC(=O)[C@H]3CCCN3C(=O)[C@H](CCC(=O)O)NC1=O)C(=O)N[C@@H](Cc1c[nH]c3ccccc13)C(=O)NC1(CCCCC1)C(=O)N2)C(C)C [3BP-3961] (Ac-VYCE[dP]KW[Ac6c]EWSC-NH2; linker 3-12 via mXylylene; lactam 6-9),10 to 79.4
2,CC(=O)N[C@H](C(=O)N[C@@H](Cc1ccc(O)cc1)C(=O)N[C@H]1CSCc2cccc(c2)CSC[C@@H](C(N)=O)NC(=O)[C@H](CO)NC(=O)[C@H](Cc2c[nH]c3ccccc23)NC(=O)[C@@H]2CCC(=O)NCCCC[C@H](NC(=O)[C@H]3CCCN3C(=O)[C@H](CCC(=O)O)NC1=O)C(=O)N[C@@H](Cc1c[nH]c3ccccc13)C(=O)NC1(CCOCC1)C(=O)N2)C(C)C [3BP-3962] (Ac-VYCE[dP]KW[Thp]EWSC-NH2; linker 3-12 via mXylylene; lactam 6-9),100 to 794
3,CC(=O)N[C@H](C(=O)N[C@@H](Cc1ccc(O)cc1)C(=O)N[C@H]1CSCc2cccc(c2)CSC(C)(C)[C@@H](C(N)=O)NC(=O)[C@H](CO)NC(=O)[C@H](Cc2c[nH]c3ccccc23)NC(=O)[C@@H]2CCC(=O)NCCCC[C@H](NC(=O)[C@H]3CCCN3C(=O)[C@H](CCC(=O)O)NC1=O)C(=O)N[C@@H](Cc1c[nH]c3ccccc13)C(=O)N[C@@H](CC(C)C)C(=O)N2)C(C)C [3BP-3963] (Ac-VYCE[dP]KWLEWS[Pen]-NH2; linker 3-12 via mXylylene; lactam 6-9),< 10
4,CC(=O)N[C@H](C(=O)N[C@@H](Cc1ccc(O)cc1)C(=O)N[C@H]1CSCc2cccc(c2)CSC[C@@H](C(N)=O)NC(=O)[C@H](CO)NC(=O)[C@H](Cc2c[nH]c3ccccc23)NC(=O)[C@@H]2CC(=O)NCCC[C@H](NC(=O)[C@H]3CCCN3C(=O)[C@H](CCC(=O)O)NC1=O)C(=O)N[C@@H](Cc1c[nH]c3ccccc13)C(=O)N[C@@H](CC(C)C)C(=O)N2)C(C)C [3BP-4005] (Ac-VYCE[dP][Orn]WLDWSC-NH2; linker 3-12 via mXylylene; lactam 6-9),< 10
5,CC(=O)N[C@H](C(=O)N[C@@H](Cc1ccc(O)cc1)C(=O)N[C@H]1CSCc2cccc(c2)CSC[C@@H](C(N)=O)NC(=O)[C@H](CO)NC(=O)[C@H](Cc2c[nH]c3ccccc23)NC(=O)[C@H]2CC(=O)NCCCC[C@H](NC(=O)[C@H]3CCCN3C(=O)[C@H](CCC(=O)O)NC1=O)C(=O)N[C@@H](Cc1c[nH]c3ccccc13)C(=O)N[C@@H](CC(C)C)C(=O)N2)C(C)C [3BP-4043] (Ac-VYCE[dP]KWL[dD]WSC-NH2; linker 3-12 via mXylylene; lactam 6-9),100 to 794
6,CC(=O)N[C@H](C(=O)N[C@@H](Cc1ccc(O)cc1)C(=O)N[C@H]1CSCc2cccc(c2)CSC[C@@H](C(N)=O)NC(=O)[C@H](CO)NC(=O)[C@H](Cc2c[nH]c3ccccc23)NC(=O)[C@@H]2CC(=O)NCCCC[C@H](NC(=O)[C@H]3CCCN3C(=O)[C@H](CCC(=O)O)NC1=O)C(=O)N[C@@H](Cc1c[nH]c3ccccc13)C(=O)N[C@@H](CC(C)C)C(=O)N2)C(C)C [3BP-4046] (Ac-VYCE[dP]KWLDWSC-NH2; linker 3-12 via mXylylene; lactam 6-9),10 to 79.4
7,CC(=O)N[C@H](C(=O)N[C@@H](Cc1ccc(O)cc1)C(=O)N[C@H]1CSCc2cccc(c2)CSC[C@@H](C(N)=O)NC(=O)[C@H](CO)NC(=O)[C@H](Cc2c[nH]c3ccccc23)NC(=O)[C@@H]2CC(=O)NCC[C@H](NC(=O)[C@H]3CCCN3C(=O)[C@H](CCC(=O)O)NC1=O)C(=O)N[C@@H](Cc1c[nH]c3ccccc13)C(=O)N[C@@H](CC(C)C)C(=O)N2)C(C)C [3BP-4050] (Ac-VYCE[dP][Dab]WLDWSC-NH2; linker 3-12 via mXylylene; lactam 6-9),100 to 794
8,CC(C)C[C@@H]1NC(=O)[C@H](Cc2c[nH]c3ccccc23)NC(=O)[C@H](CCCN(C)C)NC(=O)[C@H]2CCCN2C(=O)[C@H](CCC(=O)O)NC(=O)[C@@H](NC(=O)[C@H](Cc2ccc(O)cc2)NC(=O)[C@@H](NC(=O)CN2CCC(NC(=O)CN3CCN(CC(=O)O)CCN(CC(=O)O)CCN(CC(=O)O)CC3)CC2)C(C)C)CSCc2cccc(c2)CSC[C@@H](C(N)=O)NC(=O)[C@H](CO)NC(=O)[C@H](Cc2c[nH]c3ccccc23)NC(=O)[C@H]([C@@H](C)O)NC1=O [3BP-4098] ({DOTA}-[X2]VYCE[dP][Orn(Me2)]WLTWSC-NH2; linker 4-13 via mXylylene),10 to 79.4
9,CC(C)C[C@@H]1NC(=O)[C@H](Cc2c[nH]c3ccccc23)NC(=O)[C@H](CC(=O)O)NC(=O)[C@H]2CCCN2C(=O)[C@H](CCC(=O)O)NC(=O)[C@@H](NC(=O)[C@H](Cc2ccc(O)cc2)NC(=O)[C@@H](NC(=O)CN2CCC(NC(=O)CN3CCN(CC(=O)O)CCN(CC(=O)O)CCN(CC(=O)O)CC3)CC2)C(C)C)CSCc2cccc(c2)CSC[C@@H](C(N)=O)NC(=O)[C@H](CO)NC(=O)[C@H](Cc2c[nH]c3ccccc23)NC(=O)[C@H](CCCN(C)C)NC1=O [3BP-4099] ({DOTA}-[X2]VYCE[dP]DWL[Orn(Me2)]WSC-NH2; linker 4-13 via mXylylene),< 10
10,CC(C)C[C@@H]1NC(=O)[C@H](Cc2c[nH]c3ccccc23)NC(=O)[C@H](CC(=O)O)NC(=O)[C@H]2CCCN2C(=O)[C@H](CCC(=O)O)NC(=O)[C@@H](NC(=O)[C@H](Cc2ccc(O)cc2)NC(=O)[C@@H](NC(=O)CN2CCC(NC(=O)CN3CCN(CC(=O)O)CCN(CC(=O)O)CCN(CC(=O)O)CC3)CC2)C(C)C)CSCc2cccc(c2)CSC[C@@H](C(N)=O)NC(=O)[C@H](CCCN(C)C)NC(=O)[C@H](Cc2c[nH]c3ccccc23)NC(=O)[C@H]([C@@H](C)O)NC1=O [3BP-4100] ({DOTA}-[X2]VYCE[dP]DWLTW[Orn(Me2)]C-NH2; linker 4-13 via mXylylene),< 10
11,CC(C)C[C@]1(C)NC(=O)[C@H](Cc2c[nH]c3ccccc23)NC(=O)[C@H](CC(=O)O)NC(=O)[C@H]2CCCN2C(=O)[C@H](CCC(=O)O)NC(=O)[C@@H](NC(=O)[C@H](Cc2ccc(O)cc2)NC(=O)[C@@H](NC(=O)CN2CCC(NC(=O)CN3CCN(CC(=O)O)CCN(CC(=O)O)CCN(CC(=O)O)CC3)CC2)C(C)C)CSCc2cccc(c2)CSC[C@@H](C(N)=O)NC(=O)[C@H](CO)NC(=O)[C@H](Cc2c[nH]c3ccccc23)NC(=O)[C@H]([C@@H](C)O)NC1=O [3BP-4106] ({DOTA}-[X2]VYCE[dP]DW[αMeL]TWSC-NH2; linker 4-13 via mXylylene),10 to 79.4
12,CC(C)C[C@@H]1NC(=O)[C@H](Cc2c[nH]c3ccccc23)NC(=O)[C@H](CC(=O)O)NC(=O)[C@H]2CCCN2C(=O)[C@H](CO)N(C)C(=O)[C@@H](NC(=O)[C@H](Cc2ccc(O)cc2)NC(=O)[C@@H](NC(=O)CN2CCC(NC(=O)CN3CCN(CC(=O)O)CCN(CC(=O)O)CCN(CC(=O)O)CC3)CC2)C(C)C)CSCc2cccc(c2)CSC[C@@H](C(N)=O)NC(=O)[C@H](CO)NC(=O)[C@H](Cc2c[nH]c3ccccc23)NC(=O)[C@H]([C@@H](C)O)NC1=O [3BP-4108] ({DOTA}-[X2]VYC[NMeS][dP]DWLTWSC-NH2; linker 4-13 via mXylylene),< 10
13,CC(C)C[C@@H]1NC(=O)[C@H](Cc2c[nH]c3ccccc23)NC(=O)[C@H](CC(=O)O)NC(=O)[C@H]2CCCN2C(=O)[C@H](CCC(=O)NC[C@H](O)[C@@H](O)[C@H](O)[C@H](O)CO)NC(=O)[C@@H](NC(=O)[C@H](Cc2ccc(O)cc2)NC(=O)[C@@H](NC(=O)CN2CCC(NC(=O)CN3CCN(CC(=O)O)CCN(CC(=O)O)CCN(CC(=O)O)CC3)CC2)C(C)C)CSCc2cccc(c2)CSC[C@@H](C(N)=O)NC(=O)[C@H](CO)NC(=O)[C@H](Cc2c[nH]c3ccccc23)NC(=O)[C@H]([C@@H](C)O)NC1=O [3BP-4113] ({DOTA}-[X2]VYCE(NH(1-deoxy-D-glucityl))[dP]DWLTWSC-NH2; linker 4-13 via mXylylene),< 10
14,CC(C)C[C@@H]1NC(=O)[C@H](Cc2c[nH]c3ccccc23)NC(=O)[C@H](CC(=O)O)NC(=O)[C@H]2CCCCNC(=O)CC[C@H](NC1=O)C(=O)N[C@@H](Cc1c[nH]c3ccccc13)C(=O)N[C@@H](CO)C(=O)N[C@H](C(N)=O)CSCc1cccc(c1)CSC[C@H](NC(=O)[C@H](Cc1ccc(O)cc1)NC(=O)[C@@H](NC(=O)CN1CCC(NC(=O)CN3CCN(CC(=O)O)CCN(CC(=O)O)CCN(CC(=O)O)CC3)CC1)C(C)C)C(=O)N[C@@H](CCC(=O)O)C(=O)N2 [3BP-4114] ({DOTA}-[X2]VYCE[dK]DWLEWSC-NH2; linker 4-13 via mXylylene; lactam 6-10),10 to 79.4
15,CC(C)C[C@@H]1NC(=O)[C@H](Cc2c[nH]c3ccccc23)NC(=O)[C@H](CO)NC(=O)[C@H]2CCCCNC(=O)CC[C@H](NC1=O)C(=O)N[C@@H](Cc1c[nH]c3ccccc13)C(=O)N[C@@H](CO)C(=O)N[C@H](C(N)=O)CSCc1cccc(c1)CSC[C@H](NC(=O)[C@H](Cc1ccc(O)cc1)NC(=O)[C@@H](NC(=O)CN1CCC(NC(=O)CN3CCN(CC(=O)O)CCN(CC(=O)O)CCN(CC(=O)O)CC3)CC1)C(C)C)C(=O)N[C@@H](CCC(=O)O)C(=O)N2 [3BP-4115] ({DOTA}-[X2]VYCE[dK]SWLEWSC-NH2; linker 4-13 via mXylylene; lactam 6-10),10 to 79.4
16,"CC(C)C[C@@H]1NC(=O)[C@H](Cc2c[nH]c3ccccc23)NC(=O)[C@H](CCC(=O)NC[C@H](O)[C@@H](O)[C@H](O)[C@H](O)CO)NC(=O)[C@H]2CCCN2C(=O)[C@H](CCC(=O)O)NC(=O)[C@@H](NC(=O)[C@H](Cc2ccc(O)cc2)NC(=O)[C@@H](NC(=O)CN2CCC(NC(=O)CN3CCN(CC(=O)O)CCN(CC(=O)O)CCN(CC(=O)O)CC3)CC2)C(C)C)CSCc2cccc(c2)CSC[C@@H](C(N)=O)NC(=O)[C@H](CO)NC(=O)[C@H](Cc2c[nH]c3ccccc23)NC(=O)[C@H]([C@@H](C)O)NC1=O [3BP-4120, DOTA-APAc-Val-Tyr-[Cys(3MeBn)-Glu-pro-Glu(AGLU)-Trp-Leu-Thr-Trp-Ser-Cys]-NH2] ({DOTA}-[X2]VYCE[dP]E(NH(1-deoxy-D-glucityl))WLTWSC-NH2; linker 4-13 via mXylylene)",10 to 79.4
